Source: PubChem BioAssay (NCI)
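These data come from cells grown in 96-well plates and exposed to compound for 48 hours at five concentrations. Abbreviation: GI50, concentration required for 50% inhibition of growth. Definition used: TGI = concentration required for complete inhibition of growth.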

Key:
Assay in all cases: NCI-60 cell line screen, 48 h
786-0 renal = tested on: 786-0 renal
A498 renal = tested on: A498 renal
A549 NSCLC = tested on: A549 NSCLC
ACHN renal = tested on: ACHN renal
BT-549 breast = tested on: BT-549 breast
CAKI-1 renal = tested on: CAKI-1 renal
CCRF-CEM leukemia = tested on: CCRF-CEM leukemia
COLO 205 colon = tested on: COLO 205 colon
DU-145 prostate = tested on: DU-145 prostate
EKVX NSCLC = tested on: EKVX NSCLC
HCC-2998 colon = tested on: HCC-2998 colon
HCT-116 colon = tested on: HCT-116 colon
HCT-15 colon = tested on: HCT-15 colon
HL-60(TB) leukemia = tested on: HL-60(TB) leukemia
HOP-62 NSCLC = tested on: HOP-62 NSCLC
HOP-92 NSCLC = tested on: HOP-92 NSCLC
HS 578T breast = tested on: HS 578T breast
HT29 colon = tested on: HT29 colon
IGROV1 ovarian = tested on: IGROV1 ovarian
K-562 leukemia = tested on: K-562 leukemia
LOX IMVI melanoma = tested on: LOX IMVI melanoma
M14 melanoma = tested on: M14 melanoma
MALME-3M melanoma = tested on: MALME-3M melanoma
MCF7 breast = tested on: MCF7 breast
MDA-MB-231 breast = tested on: MDA-MB-231 breast
MDA-MB-435 = tested on: MDA-MB-435
MOLT-4 leukemia = tested on: MOLT-4 leukemia
NCI-H23 lung = tested on: NCI-H23 lung
NCI-H460 lung = tested on: NCI-H460 lung
NCI-H522 lung = tested on: NCI-H522 lung
NCI/ADR-RES ovarian = tested on: NCI/ADR-RES ovarian
OVCAR-3 ovarian = tested on: OVCAR-3 ovarian
OVCAR-4 ovarian = tested on: OVCAR-4 ovarian
OVCAR-5 ovarian = tested on: OVCAR-5 ovarian
OVCAR-8 ovarian = tested on: OVCAR-8 ovarian
PC-3 prostate = tested on: PC-3 prostate
RPMI-8226 leukemia = tested on: RPMI-8226 leukemia
RXF 393 renal = tested on: RXF 393 renal
SF-268 CNS = tested on: SF-268 CNS
SF-295 CNS = tested on: SF-295 CNS
SF-539 CNS = tested on: SF-539 CNS
SK-MEL-2 melanoma = tested on: SK-MEL-2 melanoma
SK-MEL-28 melanoma = tested on: SK-MEL-28 melanoma
SK-MEL-5 melanoma = tested on: SK-MEL-5 melanoma
SK-OV-3 ovarian = tested on: SK-OV-3 ovarian
SN12C renal = tested on: SN12C renal
SNB-19 CNS = tested on: SNB-19 CNS
SNB-75 CNS = tested on: SNB-75 CNS
SW-620 colon = tested on: SW-620 colon
TK-10 renal = tested on: TK-10 renal
U251 CNS = tested on: U251 CNS
UACC-257 melanoma = tested on: UACC-257 melanoma
UACC-62 melanoma = tested on: UACC-62 melanoma
UO-31 renal = tested on: UO-31 renal

**Q.** Which results are given for `CC/C=C\C/C=C\C[C@H]1C/C=C2/C(=O)C=C[C@@H]2C/C=C\CCC(=O)O1`?
**A.** GI50 (786-0 renal): 1.4 µM; TGI (786-0 renal): 4.97 µM; GI50 (A498 renal): 5.38 µM; TGI (A498 renal): 10.2 µM; GI50 (A549 NSCLC): 1.22 µM; TGI (A549 NSCLC): 10.9 µM; GI50 (ACHN renal): 0.727 µM; TGI (ACHN renal): 1.49 µM; GI50 (BT-549 breast): 1.1 µM; TGI (BT-549 breast): 3.61 µM; GI50 (CAKI-1 renal): 1.29 µM; TGI (CAKI-1 renal): 6.35 µM; GI50 (CCRF-CEM leukemia): 1.13 µM; TGI (CCRF-CEM leukemia): 7.05 µM; GI50 (COLO 205 colon): 1.04 µM; TGI (COLO 205 colon): 2.82 µM; GI50 (DU-145 prostate): 1.19 µM; TGI (DU-145 prostate): 5.04 µM; GI50 (EKVX NSCLC): 1.51 µM; TGI (EKVX NSCLC): 8.3 µM; GI50 (HCC-2998 colon): 0.871 µM; TGI (HCC-2998 colon): 2.32 µM; GI50 (HCT-116 colon): 0.634 µM; TGI (HCT-116 colon): 1.47 µM; GI50 (HCT-15 colon): 0.735 µM; TGI (HCT-15 colon): 2.15 µM; GI50 (HL-60(TB) leukemia): 1.22 µM; TGI (HL-60(TB) leukemia): 3.14 µM; GI50 (HOP-62 NSCLC): 1.18 µM; TGI (HOP-62 NSCLC): 4.65 µM; GI50 (HOP-92 NSCLC): 3.93 µM; TGI (HOP-92 NSCLC): 10.4 µM; GI50 (HS 578T breast): 6.08 µM; TGI (HS 578T breast): 33.2 µM; GI50 (HT29 colon): 0.828 µM; TGI (HT29 colon): 2.04 µM; GI50 (IGROV1 ovarian): 1.57 µM; TGI (IGROV1 ovarian): 5.9 µM; GI50 (K-562 leukemia): 1.17 µM; TGI (K-562 leukemia): 9.1 µM; GI50 (LOX IMVI melanoma): 0.563 µM; TGI (LOX IMVI melanoma): 1.11 µM; GI50 (M14 melanoma): 1.02 µM; TGI (M14 melanoma): 4.61 µM; GI50 (MALME-3M melanoma): 1.96 µM; TGI (MALME-3M melanoma): 8.04 µM; GI50 (MCF7 breast): 0.936 µM; TGI (MCF7 breast): 7.51 µM; GI50 (MDA-MB-231 breast): 1.07 µM; TGI (MDA-MB-231 breast): 6.03 µM; GI50 (MDA-MB-435): 0.912 µM; TGI (MDA-MB-435): 2.75 µM; GI50 (MOLT-4 leukemia): 0.976 µM; TGI (MOLT-4 leukemia): 4.37 µM; GI50 (NCI-H23 lung): 0.793 µM; TGI (NCI-H23 lung): 2.79 µM; GI50 (NCI-H460 lung): 1.46 µM; TGI (NCI-H460 lung): 16.3 µM; GI50 (NCI-H522 lung): 0.524 µM; TGI (NCI-H522 lung): 1.42 µM; GI50 (NCI/ADR-RES ovarian): 0.746 µM; TGI (NCI/ADR-RES ovarian): 1.91 µM; GI50 (OVCAR-3 ovarian): 1.08 µM; TGI (OVCAR-3 ovarian): 3.52 µM; GI50 (OVCAR-4 ovarian): 1.32 µM; TGI (OVCAR-4 ovarian): 5.66 µM; GI50 (OVCAR-5 ovarian): 1.35 µM; TGI (OVCAR-5 ovarian): 4.95 µM; GI50 (OVCAR-8 ovarian): 1.14 µM; TGI (OVCAR-8 ovarian): 4.19 µM; GI50 (PC-3 prostate): 1.18 µM; TGI (PC-3 prostate): 4.36 µM; GI50 (RPMI-8226 leukemia): 0.847 µM; TGI (RPMI-8226 leukemia): 2.43 µM; GI50 (RXF 393 renal): 0.686 µM; TGI (RXF 393 renal): 1.56 µM; GI50 (SF-268 CNS): 1.54 µM; TGI (SF-268 CNS): 9.1 µM; GI50 (SF-295 CNS): 1.83 µM; TGI (SF-295 CNS): 6.86 µM; GI50 (SF-539 CNS): 0.995 µM; TGI (SF-539 CNS): 3.46 µM; GI50 (SK-MEL-2 melanoma): 0.871 µM; TGI (SK-MEL-2 melanoma): 2.42 µM; GI50 (SK-MEL-28 melanoma): 1.02 µM; TGI (SK-MEL-28 melanoma): 3.14 µM; GI50 (SK-MEL-5 melanoma): 0.776 µM; TGI (SK-MEL-5 melanoma): 2.1 µM; GI50 (SK-OV-3 ovarian): 7.18 µM; TGI (SK-OV-3 ovarian): 20.1 µM; GI50 (SN12C renal): 1.12 µM; TGI (SN12C renal): 9.69 µM; GI50 (SNB-19 CNS): 3.15 µM; TGI (SNB-19 CNS): 8.45 µM; GI50 (SNB-75 CNS): 1.4 µM; TGI (SNB-75 CNS): 6.92 µM; GI50 (SW-620 colon): 1.65 µM; TGI (SW-620 colon): 6.04 µM; GI50 (TK-10 renal): 1.26 µM; TGI (TK-10 renal): 3.43 µM; GI50 (U251 CNS): 1.16 µM; TGI (U251 CNS): 3.69 µM; GI50 (UACC-257 melanoma): 1.85 µM; TGI (UACC-257 melanoma): 7.82 µM; GI50 (UACC-62 melanoma): 0.767 µM; TGI (UACC-62 melanoma): 2.4 µM; GI50 (UO-31 renal): 1.36 µM; TGI (UO-31 renal): 4.94 µM
